Legend:
Format in all cases: cell-based
5-HT2A receptor = molecular target: T1, 5-HT2A receptor (Homo sapiens, UniProt P28223); experiment: FLIPR Ca2+ flux functional assay, agonist activity at 5-HT2A; conditions: stably transfected HEK293 cells
T1 construct: host or cells: HEK293
Experimental: (§1) Functional assays 5-HT2A, 5-HT2B and 5-HT2C Receptors
(§2) Activity at 5-HT2A, 5-HT2B and 5-HT2C receptors was determined using a FLIPR Ca2+ flux assay at WuXi AppTec Co. Ltd. (Hong Kong) Discovery Biology Unit according to their standard protocols. Briefly, stably transfected cells expressing the receptor of interest (HEK293 for 5-HT2A and 5-HT2C; CHO-K1 for 5-HT2B) were grown and plated in a 384 well plate and incubated at 37° C. and 5% CO2 overnight. A 250 mM stock solution of probenecid in FLIPR calcium assay buffer (10 mL) was freshly prepared and combined with a fluorescent dye (Fluo-4 Direct) to give a final assay concentration of 2.5 mM. Reference compounds were 4-fold serially diluted and the screening compounds were 3-fold serially diluted in 100% DMSO for 10 points using Agilent Bravo, and 750 nL was added to a 384 well compound plate using Echo along with 30 μL assay buffer. The fluorescent dye was then added to the assay plate along with assay buffer to a final volume of 40 μL. The cell plate was incubated for 50 min at 37° C. and 5% CO2 and placed into the FLIPR Tetra along with the compound plate. 10 μL of references and compounds were then transferred from the compound plate into the cell plate and the fluorescent signal was read.

5-HT2C receptor = molecular target: T2, 5-HT2C receptor (Homo sapiens, UniProt P28335); experiment: FLIPR Ca2+ flux functional assay, agonist activity at 5-HT2C; conditions: stably transfected HEK293 cells
T2 construct: host or cells: HEK293
T2 sequence (P28335 33-458): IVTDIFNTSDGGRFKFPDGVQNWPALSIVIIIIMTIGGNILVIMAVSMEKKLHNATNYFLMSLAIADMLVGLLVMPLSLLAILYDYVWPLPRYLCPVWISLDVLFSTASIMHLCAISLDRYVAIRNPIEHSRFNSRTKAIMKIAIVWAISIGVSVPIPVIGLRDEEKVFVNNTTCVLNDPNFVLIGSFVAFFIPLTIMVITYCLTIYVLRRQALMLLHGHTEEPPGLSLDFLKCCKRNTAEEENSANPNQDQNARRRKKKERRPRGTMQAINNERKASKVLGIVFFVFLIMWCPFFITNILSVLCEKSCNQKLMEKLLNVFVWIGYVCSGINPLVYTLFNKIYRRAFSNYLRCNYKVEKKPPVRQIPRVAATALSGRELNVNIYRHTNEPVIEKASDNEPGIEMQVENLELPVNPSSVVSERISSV
Experimental: as §1, §2

5-HT2B receptor = molecular target: T3, 5-HT2B receptor (Homo sapiens, UniProt P41595); experiment: 5-HT2B activation in a similar assay at a single 10 μM concentration
T3 construct: host or cells: CHO-K1
Experimental: Activation data are provided in a similar assay tested at a single 10 μM concentration.

T3 sequence (P41595 whole entry): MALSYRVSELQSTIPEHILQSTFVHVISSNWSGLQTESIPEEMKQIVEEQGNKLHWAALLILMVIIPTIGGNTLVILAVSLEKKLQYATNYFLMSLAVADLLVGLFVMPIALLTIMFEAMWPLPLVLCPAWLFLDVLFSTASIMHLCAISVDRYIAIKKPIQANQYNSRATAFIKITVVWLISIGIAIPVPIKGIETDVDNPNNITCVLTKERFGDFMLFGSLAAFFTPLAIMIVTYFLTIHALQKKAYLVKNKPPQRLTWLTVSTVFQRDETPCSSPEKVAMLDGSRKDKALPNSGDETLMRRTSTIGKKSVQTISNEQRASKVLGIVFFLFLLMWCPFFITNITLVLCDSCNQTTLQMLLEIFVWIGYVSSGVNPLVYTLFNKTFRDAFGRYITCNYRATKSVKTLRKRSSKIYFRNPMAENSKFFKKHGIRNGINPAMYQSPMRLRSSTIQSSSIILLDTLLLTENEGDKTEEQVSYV
T1 sequence (P28223 whole entry): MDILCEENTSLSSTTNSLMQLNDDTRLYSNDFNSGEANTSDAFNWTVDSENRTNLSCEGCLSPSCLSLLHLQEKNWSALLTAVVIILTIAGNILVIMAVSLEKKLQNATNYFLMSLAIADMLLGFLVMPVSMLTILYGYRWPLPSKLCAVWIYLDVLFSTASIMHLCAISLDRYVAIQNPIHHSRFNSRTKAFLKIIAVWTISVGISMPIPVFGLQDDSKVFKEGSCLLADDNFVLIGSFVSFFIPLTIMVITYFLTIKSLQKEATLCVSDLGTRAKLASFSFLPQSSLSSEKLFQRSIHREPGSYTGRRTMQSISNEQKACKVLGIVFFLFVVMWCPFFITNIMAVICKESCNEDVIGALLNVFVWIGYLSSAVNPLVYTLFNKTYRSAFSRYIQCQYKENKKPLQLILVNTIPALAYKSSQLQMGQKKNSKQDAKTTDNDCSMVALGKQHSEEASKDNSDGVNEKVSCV

CN(CCc1c[nH]c2ncc(F)cc12)C1CC1 [Compound S1, N-(2-(5-fluoro-1H-pyrrolo[2,3-b]pyridin-3-yl)ethyl)-N-methylcyclopropanamine]
EC50 (5-HT2A receptor): 33.7 nM | Emax (5-HT2A receptor): 82% | EC50 (5-HT2C receptor): 1440 nM | Emax (5-HT2C receptor): 77% | 5-HT2B % Activation @ 10 μM (5-HT2B receptor): 2%

Fc1cnc2[nH]cc(CCNC3CC3)c2c1 [Compound S2, N-(2-(5-fluoro-1H-pyrrolo[2,3-b]pyridin-3-yl)ethyl)cyclopropanamine]
EC50 (5-HT2A receptor): 10.8 nM | Emax (5-HT2A receptor): 92% | EC50 (5-HT2C receptor): 187 nM | Emax (5-HT2C receptor): 92% | 5-HT2B % Activation @ 10 μM (5-HT2B receptor): 74%

Fc1cnc2[nH]cc(CCN(C3CC3)C3CC3)c2c1 [Compound S5, N-cyclopropyl-N-(2-(5-fluoro-1H-pyrrolo[2,3-b]pyridin-3-yl)ethyl)cyclopropanamine]
EC50 (5-HT2A receptor): 1070 nM | Emax (5-HT2A receptor): 82% | EC50 (5-HT2C receptor): > 10000 nM | Emax (5-HT2C receptor): 28%

Fc1cnc2[nH]cc(CCN3CCCC3)c2c1 [Compound S6, 5-fluoro-3-(2-(pyrrolidin-1-yl)ethyl)-1H-pyrrolo[2,3-b]pyridine]
EC50 (5-HT2A receptor): 37.9 nM | Emax (5-HT2A receptor): 81% | EC50 (5-HT2C receptor): 1860 nM | Emax (5-HT2C receptor): 81% | 5-HT2B % Activation @ 10 μM (5-HT2B receptor): 16%

Fc1cnc2[nH]cc(CCN3CCCCC3)c2c1 [Compound S7, 5-fluoro-3-(2-(piperidin-1-yl)ethyl)-1H-pyrrolo[2,3-b]pyridine]
EC50 (5-HT2A receptor): 529 nM | Emax (5-HT2A receptor): 70% | EC50 (5-HT2C receptor): > 10000 nM | Emax (5-HT2C receptor): 2% | 5-HT2B % Activation @ 10 μM (5-HT2B receptor): 0%

Fc1cnc2[nH]cc(CCN3CCC34CCC4)c2c1 [Compound S8, 3-(2-(1-azaspiro[3.3]heptan-1-yl)ethyl)-5-fluoro-1H-pyrrolo[2,3-b]pyridine]
EC50 (5-HT2A receptor): 354 nM | Emax (5-HT2A receptor): 56% | EC50 (5-HT2C receptor): > 10000 nM | Emax (5-HT2C receptor): 0%

Fc1cnc2[nH]cc(CCN3CCC3)c2c1 [Compound S9, 3-(2-(azetidin-1-yl)ethyl)-5-fluoro-1H-pyrrolo[2,3-b]pyridine]
EC50 (5-HT2A receptor): 21 nM | Emax (5-HT2A receptor): 83% | EC50 (5-HT2C receptor): 1480 nM | Emax (5-HT2C receptor): 72%

Fc1cnc2[nH]cc(CCNC3CCC3)c2c1 [Compound S11, N-(2-(5-fluoro-1H-pyrrolo[2,3-b]pyridin-3-yl)ethyl)cyclobutanamine]
EC50 (5-HT2A receptor): 136 nM | Emax (5-HT2A receptor): 80% | EC50 (5-HT2C receptor): > 10000 nM | Emax (5-HT2C receptor): 25%

CN(CCc1c[nH]c2ncc(F)cc12)C1CCC1 [Compound S12, N-(2-(5-fluoro-1H-pyrrolo[2,3-b]pyridin-3-yl)ethyl)-N-methylcyclobutanamine]
EC50 (5-HT2A receptor): 79 nM | Emax (5-HT2A receptor): 84% | EC50 (5-HT2C receptor): 3370 nM | Emax (5-HT2C receptor): 50%

Fc1cnc2[nH]cc(CCN3CCOCC3)c2c1 [Compound S15, 4-(2-(5-fluoro-1H-pyrrolo[2,3-b]pyridin-3-yl)ethyl)morpholine]
EC50 (5-HT2A receptor): 1940 nM | Emax (5-HT2A receptor): 72% | EC50 (5-HT2C receptor): > 10000 nM | Emax (5-HT2C receptor): 0%

CC1CCN1CCc1c[nH]c2ncc(F)cc12 (stereo not shown) [Compound S16, 3-(2-(2-methylazetidin-1-yl)ethyl)-5-fluoro-1H-pyrrolo[2,3-b]pyridine]
EC50 (5-HT2A receptor): 32.5 nM | Emax (5-HT2A receptor): 81% | EC50 (5-HT2C receptor): 1100 nM | Emax (5-HT2C receptor): 60%

Fc1cnc2[nH]cc(CCNCC3CC3)c2c1 [Compound S17, N-(cyclopropylmethyl)-2-(5-fluoro-1H-pyrrolo[2,3-b]pyridin-3-yl)ethan-1-amine]
EC50 (5-HT2A receptor): 134 nM | Emax (5-HT2A receptor): 84% | EC50 (5-HT2C receptor): 4120 nM | Emax (5-HT2C receptor): 35% | 5-HT2B % Activation @ 10 μM (5-HT2B receptor): 7%

Fc1cnc2[nH]cc(CCN3CCC4CC43)c2c1 (stereo not shown) [Compound S25, 3-(2-(2-azabicyclo[3.1.0]hexan-2-yl)ethyl)-5-fluoro-1H-pyrrolo[2,3-b]pyridine]
EC50 (5-HT2A receptor): 8.98 nM | Emax (5-HT2A receptor): 87% | EC50 (5-HT2C receptor): 76 nM | Emax (5-HT2C receptor): 84% | 5-HT2B % Activation @ 10 μM (5-HT2B receptor): 41%

Fc1cnc2[nH]cc(CCNCc3ccccc3F)c2c1 [Compound S30, 2-(5-fluoro-1H-pyrrolo[2,3-b]pyridin-3-yl)-N-(2-fluorobenzyl)ethan-1-amine]
EC50 (5-HT2A receptor): 26.9 nM | Emax (5-HT2A receptor): 82% | EC50 (5-HT2C receptor): 512 nM | Emax (5-HT2C receptor): 83%

Fc1cccc(CNCCc2c[nH]c3ncc(F)cc23)c1 [Compound S31, 2-(5-fluoro-1H-pyrrolo[2,3-b]pyridin-3-yl)-N-(3-fluorobenzyl)ethan-1-amine]
EC50 (5-HT2A receptor): 15.5 nM | Emax (5-HT2A receptor): 87% | EC50 (5-HT2C receptor): 515 nM | Emax (5-HT2C receptor): 76%

COc1ccccc1CNCCc1c[nH]c2ncc(F)cc12 [Compound S32, 2-(5-fluoro-1H-pyrrolo[2,3-b]pyridin-3-yl)-N-(2-methoxybenzyl)ethan-1-amine]
EC50 (5-HT2A receptor): 3.31 nM | Emax (5-HT2A receptor): 94% | EC50 (5-HT2C receptor): 206 nM | Emax (5-HT2C receptor): 89%

COc1cccc(CNCCc2c[nH]c3ncc(F)cc23)c1 [Compound S33, 2-(5-fluoro-1H-pyrrolo[2,3-b]pyridin-3-yl)-N-(3-methoxybenzyl)ethan-1-amine]
EC50 (5-HT2A receptor): 8.27 nM | Emax (5-HT2A receptor): 82% | EC50 (5-HT2C receptor): 244 nM | Emax (5-HT2C receptor): 87%

Fc1cnc2[nH]cc(CCNCc3ccccc3)c2c1 [Compound S34, N-benzyl-2-(5-fluoro-1H-pyrrolo[2,3-b]pyridin-3-yl)ethan-1-amine]
EC50 (5-HT2A receptor): 18 nM | Emax (5-HT2A receptor): 90% | EC50 (5-HT2C receptor): 319 nM | Emax (5-HT2C receptor): 84%

CN(CCc1c[nH]c2ncc(OC(F)(F)F)cc12)C1CC1 [Compound S41, N-methyl-N-(2-(5-(trifluoromethoxy)-1H-pyrrolo[2,3-b]pyridin-3-yl)ethyl)cyclopropanamine]
EC50 (5-HT2A receptor): 822 nM | Emax (5-HT2A receptor): 41% | EC50 (5-HT2C receptor): > 10000 nM | Emax (5-HT2C receptor): 0% | 5-HT2B % Activation @ 10 μM (5-HT2B receptor): 0%

CN(CCc1c[nH]c2ncc(Cl)cc12)C1CC1 [Compound S42, N-(2-(5-chloro-1H-pyrrolo[2,3-b]pyridin-3-yl)ethyl)-N-methylcyclopropanamine]
EC50 (5-HT2A receptor): 143 nM | Emax (5-HT2A receptor): 58% | EC50 (5-HT2C receptor): 1100 nM | Emax (5-HT2C receptor): 75% | 5-HT2B % Activation @ 10 μM (5-HT2B receptor): 15%

CN(CCc1c[nH]c2ncc(F)cc12)CC1CC1 [Compound S43, N-(cyclopropylmethyl)-2-(5-fluoro-1H-pyrrolo[2,3-b]pyridin-3-yl)-N-methylethan-1-amine]
EC50 (5-HT2A receptor): 155 nM | Emax (5-HT2A receptor): 71% | EC50 (5-HT2C receptor): 2740 nM | Emax (5-HT2C receptor): 55%

COc1cnc2[nH]cc(CCN(C)C3CC3)c2c1 [Compound S44, N-(2-(5-methoxy-1H-pyrrolo[2,3-b]pyridin-3-yl)ethyl)-N-methylcyclopropanamine]
EC50 (5-HT2A receptor): 9.49 nM | Emax (5-HT2A receptor): 82% | EC50 (5-HT2C receptor): 2830 nM | Emax (5-HT2C receptor): 45% | 5-HT2B % Activation @ 10 μM (5-HT2B receptor): 1%

COc1cnc2[nH]cc(CCN3CCC3)c2c1 [Compound S45, 3-(2-(azetidin-1-yl)ethyl)-5-methoxy-1H-pyrrolo[2,3-b]pyridine]
EC50 (5-HT2A receptor): 24 nM | Emax (5-HT2A receptor): 86% | EC50 (5-HT2C receptor): > 10000 nM | Emax (5-HT2C receptor): 11% | 5-HT2B % Activation @ 10 μM (5-HT2B receptor): 0%

COc1cnc2[nH]cc(CCN3CCCC3)c2c1 [Compound S46, 5-methoxy-3-(2-(pyrrolidin-1-yl)ethyl)-1H-pyrrolo[2,3-b]pyridine]
EC50 (5-HT2A receptor): 47 nM | Emax (5-HT2A receptor): 91% | EC50 (5-HT2C receptor): 4170 nM | Emax (5-HT2C receptor): 43% | 5-HT2B % Activation @ 10 μM (5-HT2B receptor): 3%

COc1cnc2[nH]cc(CCN3CCCCC3)c2c1 [Compound S47, 5-methoxy-3-(2-(piperidin-1-yl)ethyl)-1H-pyrrolo[2,3-b]pyridine]
EC50 (5-HT2A receptor): 673 nM | Emax (5-HT2A receptor): 65% | EC50 (5-HT2C receptor): > 10000 nM | Emax (5-HT2C receptor): 8% | 5-HT2B % Activation @ 10 μM (5-HT2B receptor): 0%

C[C@H]1CCN1CCc1c[nH]c2ncc(F)cc12 [Compound S48, (S)-5-fluoro-3-(2-(2-methylazetidin-1-yl)ethyl)-1H-pyrrolo[2,3-b]pyridine]
EC50 (5-HT2A receptor): 115 nM | Emax (5-HT2A receptor): 82% | EC50 (5-HT2C receptor): 3960 nM | Emax (5-HT2C receptor): 44% | 5-HT2B % Activation @ 10 μM (5-HT2B receptor): 2%

C[C@@H]1CCN1CCc1c[nH]c2ncc(F)cc12 [Compound S49, (R)-5-fluoro-3-(2-(2-methylazetidin-1-yl)ethyl)-1H-pyrrolo[2,3-b]pyridine]
EC50 (5-HT2A receptor): 65.7 nM | Emax (5-HT2A receptor): 78% | EC50 (5-HT2C receptor): > 10000 nM | Emax (5-HT2C receptor): 28% | 5-HT2B % Activation @ 10 μM (5-HT2B receptor): 0%

C[C@@H]1CCCN1CCc1c[nH]c2ncc(F)cc12 [Compound S50, (R)-5-fluoro-3-(2-(2-methylpyrrolidin-1-yl)ethyl)-1H-pyrrolo[2,3-b]pyridine]
EC50 (5-HT2A receptor): 66.5 nM | Emax (5-HT2A receptor): 90% | EC50 (5-HT2C receptor): 3980 nM | Emax (5-HT2C receptor): 44% | 5-HT2B % Activation @ 10 μM (5-HT2B receptor): 2%

Reference: patent publication US20250361233A1, “Compounds For Activating Serotonin Receptor” (PSYLO PTY LTD, priority 2023, published 2025)
